In patent publication US8779154B2, “Fused ring compounds for inflammation and immune-related uses” (priority 2006, dated 2014):

Tested on: IL-2 production
Assay: Inhibition of IL-2 production in PHA-activated Jurkat cells (ELISA)
Assay type: cell-based
Settings: Homo sapiens, Jurkat, 20 h, PHA 2.5 μg/mL, IL-2 ELISA
Protocol: Jurkat cells were placed in a 96 well plate (0.5 million cells per well in 1% FBS medium) then a test compound of this invention was added at different concentrations. After 10 minutes, the cells were activated with PHA (final concentration 2.5 μg/mL) and incubated for 20 hours at 37° C. under CO2. The final volume was 200 μL. Following incubation, the cells were centrifuged and the supernatants collected and stored at −70° C. prior to assaying for IL-2 production. A commercial ELISA kit (IL-2 Eli-pair, Diaclone Research, Besancon, France) was used to detect production of IL-2, from which dose response curves were obtained. The IC50 value was calculated as the concentration at which 50% of maximum IL-2 production after stimulation was inhibited versus a non-stimulation control.

Compound	IC50 [µM]
Fc1cccc(F)c1CN(Cc1c(F)cccc1F)c1ccc2c(c1)CCCc1cnc(-c3cccnc3)nc1-2 [Compound 103]	> 1
O=C(Nc1nc2c(s1)-c1cc(-c3ccccn3)ccc1CCC2)c1c(F)cccc1F [Compound 82]	> 1
COc1ccc2c(c1)-c1sc(NC(=O)c3c(F)cccc3F)nc1CCO2 [Compound 4]	> 1
C/N=C(/Nc1c(F)cccc1F)c1nc2c(s1)-c1cc(OC)ccc1CCC2 [Compound 145]	> 1
O=C(Nc1nc2c(s1)-c1nc(-c3cccnc3)sc1CCC2)c1c(F)cccc1F [Compound 88]	0.5 to 1
O=C(Nc1nc2c(s1)-c1cc(Br)sc1CCC2)c1c(F)cccc1F [Compound 84]	> 1
O=C(Nc1nc2c(s1)-c1ccsc1CCC2)c1c(F)cccc1F [Compound 85]	> 1
COc1ccc2c(c1)CCCCc1nc(NC(=O)c3c(F)cccc3F)ncc1-2 [Compound 98]	> 1
COc1cccc2c1oc(=O)c1nc(NC(=O)c3c(F)cccc3F)sc12 [Compound 2]	> 1
CN1Cc2ccc(Br)cc2-c2sc(NC(=O)c3c(F)cccc3F)nc2C1 [Compound 138]	0.25 to 0.5
N=C(Nc1c(F)cccc1F)c1nc2c(s1)-c1cc(-c3cnco3)ccc1CCC2 [Compound 153]	0.25 to 0.5
COc1ccc(-c2ccc3c(c2)-c2sc(C(=O)Nc4c(F)cccc4F)nc2CCC3)cn1 [Compound 121]	0.25 to 0.5

Next, values leading:

IC50 [µM]	Compound
≤ 0.03	Cn1cc(-c2ccc3c(c2)-c2sc(C(=O)Nc4c(F)cccc4F)nc2CCC3)cn1 [Compound 127]
0.03 to 0.1	O=C(Nc1c(F)cccc1F)c1nc2c(s1)-c1nc(-c3cccnc3)sc1CCC2 [Compound 133]
0.1 to 0.25	O=C(Nc1c(F)cccc1F)c1ccc2c(c1)CCCc1cnc(-c3cccnc3)nc1-2 [Compound 142]
0.1 to 0.25	COc1ccc2c(c1)-c1sc(C(=O)Nc3c(F)cccc3F)nc1CCO2 [Compound 33]
0.1 to 0.25	O=C(Nc1nc2c(s1)-c1ccc(-n3ccnc3)cc1CCC2)c1c(F)cccc1F [Compound 74]
0.03 to 0.1	N#Cc1ccc2c(c1)CCCc1nc(NC(=O)c3c(F)cccc3F)sc1-2 [Compound 59]
≤ 0.03	O=C(Nc1c(F)cccc1F)c1nc2c(s1)-c1cc(-c3ccccn3)ccc1CCC2 [Compound 37]
≤ 0.03	Cn1nnnc1-c1ccc2c(c1)CCCc1nc(NC(=O)c3c(F)cccc3F)sc1-2 [Compound 78]
≤ 0.03	COC(=O)c1ccc2c(c1)-c1sc(C(=O)Nc3c(F)cccc3F)nc1CCC2 [Compound 38]
